Assays:
[1] = test system: 3D in vitro skin model containing epidermal keratinocytes and dermal fibroblasts; test: Gene expression changes (178 genes) in 3D in vitro skin model; assay type: cell-based; details: for Regulated genes (function): UV exposed tissues, baseline Group K
Experimental: A 3D in vitro skin model containing epidermal keratinocytes and dermal fibroblasts was used. Some tissues were irradiated with 200 mJ UVB/cm^2. Test materials were applied topically for 24 hours (after UVB exposure) and an MTT assay was used to check the viability of cells. The following treatment groups were used: • olive oil (no CBD); • CBD in olive oil in concentrations of 30, 60, 120, and 250 mg/mL; • No treatment; and • Triton-X® as positive control.
Next, changes in gene expression for 178 genes were measured in tissues. Statistical significance was determined using unpaired t-test, P<0.05, N=4.

[2] = test system: acute radiation-induced dermatitis; test: Skin redness scoring in mouse radiation dermatitis model; assay type: in vivo, Balb/c mice; set-up: key to Redness score (mean): visual redness score, scale 0 to 3 in 0.5 increments; details: for Redness score % Change CBD vs. Group 3: vs olive oil only; for Redness score % Change CBD vs. Group 2: vs radiation only
Experimental: (§1) A study was performed on mice to determine the efficacy of topically-dosed CBD in an olive oil vehicle for the treatment of acute radiation-induced dermatitis. Three different CBD dosages were used— 30 mg/mL (3 wt %), 120 mg/mL (12 wt %), and 250 mg/mL (25 wt %).
(§2) 144 female Balb/c mice with an average starting body weight (±SEM) of 17.96±0.12 grams were randomized into six (6) groups of 24 animals each, as follows:
(§3) The control group (Group 1) was not irradiated. The animals in Groups 2-6 were anesthetized via a single intraperitoneal injection of xylazine and ketamine prior to being administered a single dose of 30 Grays (Gy) of radiation directed at a 2 cm×4 cm patch of shaved dorsal skin on Day 0. Radiation was generated by a 160 kVp (15-ma) X-ray source at a focal distance of 10 cm, hardened with a 0.35 mm Cu filtration system at a rate of approximately 3.2 Gy/minute.
(§4) Dosing for animals in Groups 3-6 began on Day 0 immediately after radiation. Treatments were administered topically (0.1 mL per animal) daily from Days 0-28.
(§5) Starting on Day 8 and continuing every other day thereafter (Days 8-28), each animal was evaluated for skin redness and dermatitis, and photographed for subsequent blinded scoring of dermatitis at the completion of the study. Body weight was taken daily.
Skin redness was scored visually by comparison to a photographic scale, and reported on a scale of 0 to 3 in 0.5 unit increments. The scale is described in the table below:
Data were evaluated using one-way ANOVA with Dunnett's multiple comparisons test to compare all groups to the vehicle control group using GraphPad Prism 8.4.3 (La Jolla, CA Duration of dermatitis data was evaluated using the Chi-square test to compare all groups to the vehicle-control group and radiation only group using SigmaPlot 11.0 (Systat Software, Inc.). Statistical significance was achieved when p<0.05.

[3] = test system: acute radiation-induced dermatitis; test: Blinded clinical dermatitis scoring in mouse radiation dermatitis model; assay type: in vivo, Balb/c mice; details: 150 mg/mL CBD
[4] = Body weight change in irradiated mice; assay type: in vivo, Balb/c mice
Experimental: as §1, §2, §3, §4, §5

SMILES: C=C(C)[C@@H]1CCC(C)=C[C@H]1c1c(O)cc(CCCCC)cc1O [CBD, 2-[(1R,6R)-6-Isopropenyl-3-methylcyclohex-2-en-1-yl]-5-pentylbenzene-1,3-diol]
- Regulated genes (function) ([1]; 30 mg/mL CBD in olive oil (Group G)): associated with cell renewal, tissue remodeling, anti-apoptotic pathway, and extracellular matrix integrity
- Regulated genes (function) ([1]; 120 mg/mL CBD in olive oil (Group I)): associated with antioxidant/stress response
- Genes with FC of 2 or greater ([1]; CBD in olive oil 30-250 mg/mL (Groups B-E), healthy tissues, baseline Group A (olive oil)): four
- Redness score (mean) ([2]; CBD-treated groups condensed (30, 120, 250 mg/mL), Day 8): 0.81
- Redness score (mean) ([2]; CBD-treated groups condensed, Day 10): 1.06
- Redness score (mean) ([2]; CBD-treated groups condensed, Day 12): 1.07
- Redness score (mean) ([2]; CBD-treated groups condensed, Day 14): 1.16
- Redness score (mean) ([2]; CBD-treated groups condensed, Day 16): 1.43
- Redness score (mean) ([2]; CBD-treated groups condensed, Day 18): 1.40
- Redness score (mean) ([2]; CBD-treated groups condensed, Day 20): 1.43
- Redness score (mean) ([2]; CBD-treated groups condensed, Day 22): 1.50
- Redness score (mean) ([2]; CBD-treated groups condensed, Day 24): 1.18
- Redness score (mean) ([2]; CBD-treated groups condensed, Day 26): 1.04
- Redness score (mean) ([2]; CBD-treated groups condensed, Day 28): 0.89
- Mean redness scores compared against Group 2 (radiation only) ([2]; CBD-treated groups considered together, p<0.05): statistically significant reduction
- Redness scores compared to Group 2 ([2]; CBD-treated groups, after Day 14): consistently lower
- Redness scores compared to Group 3 (olive oil only) ([2]; CBD-treated groups, all time points): consistently lower
- Redness score % Change CBD vs. Group 3 ([2]; Day 8): −16.13%
- Redness score % Change CBD vs. Group 3 ([2]; Day 10): −30.61%
- Redness score % Change CBD vs. Group 3 ([2]; Day 12): −32.68%
- Redness score % Change CBD vs. Group 3 ([2]; Day 14): −27.45%
- Redness score % Change CBD vs. Group 3 ([2]; Day 16): −29.93%
- Redness score % Change CBD vs. Group 3 ([2]; Day 18): −21.71%
- Redness score % Change CBD vs. Group 3 ([2]; Day 20): −23.70%
- Redness score % Change CBD vs. Group 3 ([2]; Day 22): −32.08%
- Redness score % Change CBD vs. Group 3 ([2]; Day 24): −25.44%
- Redness score % Change CBD vs. Group 3 ([2]; Day 26): −30.56%
- Redness score % Change CBD vs. Group 3 ([2]; Day 28): −42.34%
- Redness score % Change CBD vs. Group 2 ([2]; Day 8): 87.50%
- Redness score % Change CBD vs. Group 2 ([2]; Day 12): 3.83%
- Redness score % Change CBD vs. Group 2 ([2]; Day 14): −3.65%
- Redness score % Change CBD vs. Group 2 ([2]; Day 16): −21.32%
- Redness score % Change CBD vs. Group 2 ([2]; Day 18): −24.73%
- Redness score % Change CBD vs. Group 2 ([2]; Day 20): −25.07%
- Redness score % Change CBD vs. Group 2 ([2]; Day 22): −34.00%
- Redness score % Change CBD vs. Group 2 ([2]; Day 24): −42.28%
- Redness score % Change CBD vs. Group 2 ([2]; Day 26): −45.44%
- Redness score % Change CBD vs. Group 2 ([2]; Day 28): −45.68%
- % Days ≥2 [3]: 61.22%
- Percent weight change over time ([4]; 30 mg/mL and 120 mg/mL CBD groups, topical daily Days 0-28, FIG. 1): most closely followed the curve of the naïve group
- Percent weight change, difference between CBD-treated groups and the other three groups ([4]; three CBD-treated groups (30, 120, 250 mg/mL)): not found to be statistically significant

— US12059393B2, “Compositions for topical treatment of radiation dermatitis” (Akos Biosciences, Inc, priority 2022, dated 2024)
